# According to patent US20070270382A1, “Composition for Protecting Skin” (priority 2003, published 2007):
# What was measured:
# skin barrier = assay: Skin barrier function improving effect: TEWL repair after tape stripping, before and after taking sphingomyelin; type: in vivo, human; details: for difference in TEWL, taking vs not-taking sphingomyelin (in words): 2 and 4 days
# Description: In this Example, a person's sebum film was artificially injured to increase an amount of water loss. After that, it was confirmed that there was a difference of repair degrees of water loss before and after taking sphingomyelin. It was also confirmed that how much skin wrinkles due to the water loss were improved by taking sphingomyelin. A capsule containing sphingomyelin 50 mg, phosphatidylserine 10 mg and gamma-linoleic acid 12.5 mg was used as a test material. Two capsules per one time were taken two times (morning and evening) a day. That is, four capsules were taken per a day and a medication period was three weeks. Tests were carried out for 18 males and 3 females and the testing method was as follows. An amount of water loss of skin was measured for an inner region of an arm using a TEWL meter TM210. A skin wound was induced by stripping off corneum with a tape many times and increasing a TEWL value (normally, around 6˜10) to 30 or more. In other words, after inducing an injury of a skin barrier using a tape, repair aspects of TEWL values in the injured region before and after taking sphingomyelin were compared and thus a skin barrier restoring effect of sphingomyeling was confirmed. Skin barrier function in a normal state was checked by measuring TEWL in a forearm from 21 persons. A TEWL value was increased to 30 or more after tape stripping and then TEWL was measured every other day. TEWL in a normal state was measured together with a measurement of TEWL in an injured region because TEWL in a normal state can be different according to conditions of temperature, humidity and weather, etc. Meanwhile, a same test was carried out to measure a medication effect of sphingomyelin and TEWL of skin was measured while taking sphingomyelin two times a day.
# hairless mice = assay: Photoaging inhibitory effect of sphingomyelin (animal test, UV irradiation); type: in vivo
# skin wrinkles = assay: Skin wrinkle improving effect: wrinkles adjacent to eyes observed using a Charm View; type: in vivo, human; details: four persons having a weak skin barrier function; before and after taking sphingomyelin
# Description: A capsule containing sphingomyelin 50 mg, phosphatidylserine 10 mg and gamma-linoleic acid 12.5 mg was used as a test material. Two capsules per one time were taken two times (morning and evening) a day. That is, four capsules were taken per a day and a medication period was three weeks. […] Four persons having a weak skin barrier function of the 21 examinees were selected and their skin states were measured before and after taking sphingomyelin.
substance,measurement,setting,value
Sphingomyelin,"difference in TEWL, taking vs not-taking sphingomyelin (in words)",skin barrier; 21 persons (Table 3),no significant difference
same,"difference in TEWL, taking vs not-taking sphingomyelin (in words)",skin barrier; weak skin barrier function (Table 5),no significant difference
same,"difference of TEWL decreases, taking vs not-taking sphingomyelin (in words)","skin barrier; 6 days, weak skin barrier function (Table 5)",significant difference of TEWL decreases
same,"% TEWL, taking sphingomyelin","skin barrier; day 0, 21 persons, capsule with sphingomyelin 50 mg, phosphatidylserine 10 mg, gamma-linoleic acid 12.5 mg, four capsules per day",100 % TEWL
same,"% TEWL, taking sphingomyelin","skin barrier; day 0, persons with weak skin barrier function (high TEWL in normal region)",100 % TEWL
same,"% TEWL, taking sphingomyelin","skin barrier; day 0, six examinees with relatively high decrease rate of TEWL",100 % TEWL
same,"% TEWL, taking sphingomyelin","skin barrier; day 2, 21 persons, oral capsules",43.2 ± 11.5 % TEWL
same,"% TEWL, taking sphingomyelin","skin barrier; day 2, persons with weak skin barrier function",36.9 ± 18.9 % TEWL
same,"% TEWL, taking sphingomyelin","skin barrier; day 2, six examinees with relatively high decrease rate of TEWL",45.7 ± 10.7 % TEWL
same,"% TEWL, taking sphingomyelin","skin barrier; day 4, 21 persons, oral capsules",23.1 ± 8.1 % TEWL
same,"% TEWL, taking sphingomyelin","skin barrier; day 4, persons with weak skin barrier function",19.8 ± 8 % TEWL
same,"% TEWL, taking sphingomyelin","skin barrier; day 4, six examinees with relatively high decrease rate of TEWL",23.7 ± 7.5 % TEWL
same,"% TEWL, taking sphingomyelin","skin barrier; day 6, 21 persons, oral capsules",14.8 ± 7 % TEWL
same,"% TEWL, taking sphingomyelin","skin barrier; day 6, persons with weak skin barrier function",9.7 ± 5.8 % TEWL
same,"% TEWL, taking sphingomyelin","skin barrier; day 6, six examinees with relatively high decrease rate of TEWL",7.4 ± 4.3 % TEWL
same,"difference in TEWL decrease, taking vs not-taking sphingomyelin (in words)","skin barrier; six days, 21 persons (FIG. 11), paired t-test",significant difference in a TEWL decrease
same,"state of skin (photographs, FIGS. 2 to 4)","hairless mice; UV irradiation+SM application vs UV only or UV+Vehicle, after completion of the test","the skin was extremely injured, compared to the case that the substrate containing sphingomyelin was applied after UV irradiation"
same,skin barrier function (FIG. 1),"hairless mice; UV irradiation+SM application, 0.5% in 1,3-butyleneglycol/distilled water/ethanol 5:3:2, UV three times per week for three months, vs UV only or UV+Vehicle",the skin barrier was not easily damaged and remained in a level of the early stage of the test
same,skin barrier function (FIG. 1),hairless mice; UV irradiation+SM oral administration,skin barrier protecting effect of sphingomyelin against ultraviolet was exhibited
same,skin histological test (FIG. 5): epidermis and dermis,hairless mice; sphingomyelin applied after UV irradiation vs only UV irradiation,the epidermis and dermis thereof were similar to those of at the early stage of the test
same,wrinkle improving effect (FIG. 14),skin wrinkles,had a wrinkle improving effect
